Source: US20050020519A1, “Modulation of insulin-regulated aminopeptidase (irap)/angiotensin iv (at4) receptor activity” (priority 2001, published 2005)
Where no end group is shown, it is not given here.

How the values were obtained:
AT4 receptor = target: T1, AT4 receptor (Bos taurus, UniProt F1N1Q8); assay: AT4 radioreceptor assay, ^125I-Ang IV binding to bovine adrenal membranes
T1 construct: from tissue; host or cells: bovine adrenal gland membranes
T1 sequence (F1N1Q8 1-1022): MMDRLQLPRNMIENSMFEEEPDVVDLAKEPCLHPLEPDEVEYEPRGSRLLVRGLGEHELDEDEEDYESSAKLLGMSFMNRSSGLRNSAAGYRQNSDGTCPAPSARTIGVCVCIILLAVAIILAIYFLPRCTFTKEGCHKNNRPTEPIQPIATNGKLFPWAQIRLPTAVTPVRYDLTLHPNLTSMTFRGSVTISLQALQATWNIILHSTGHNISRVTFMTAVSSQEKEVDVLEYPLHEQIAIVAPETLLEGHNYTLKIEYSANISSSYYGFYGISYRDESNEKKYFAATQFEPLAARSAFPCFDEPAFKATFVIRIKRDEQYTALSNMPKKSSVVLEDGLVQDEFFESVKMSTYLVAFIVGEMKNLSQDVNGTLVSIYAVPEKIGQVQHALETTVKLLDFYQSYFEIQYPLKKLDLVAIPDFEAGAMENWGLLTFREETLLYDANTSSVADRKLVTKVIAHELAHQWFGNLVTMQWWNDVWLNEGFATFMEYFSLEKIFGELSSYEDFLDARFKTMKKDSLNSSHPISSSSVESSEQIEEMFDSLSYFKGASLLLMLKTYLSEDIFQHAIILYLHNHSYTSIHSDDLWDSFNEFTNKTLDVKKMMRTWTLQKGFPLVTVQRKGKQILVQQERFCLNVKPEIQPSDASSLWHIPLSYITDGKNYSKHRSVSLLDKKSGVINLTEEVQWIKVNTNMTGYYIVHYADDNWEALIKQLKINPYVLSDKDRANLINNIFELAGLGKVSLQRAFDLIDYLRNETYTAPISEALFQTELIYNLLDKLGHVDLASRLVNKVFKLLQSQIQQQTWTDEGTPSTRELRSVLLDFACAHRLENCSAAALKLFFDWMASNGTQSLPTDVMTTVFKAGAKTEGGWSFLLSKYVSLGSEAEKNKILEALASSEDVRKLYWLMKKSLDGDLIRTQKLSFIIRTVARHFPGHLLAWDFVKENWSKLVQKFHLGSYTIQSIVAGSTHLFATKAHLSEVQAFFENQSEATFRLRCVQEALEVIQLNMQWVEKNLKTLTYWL
Description: The AT4 radioreceptor assay was used to screen the sheep brain extracts for AT4 receptor modulatory activity. The membranes were prepared using bovine adrenal glands obtained from the abattoir. The adrenals were diced, homogenized in ice-cold hypotonic buffer (50 mM Tris, 5 mM EDTA, pH 7.4) and centrifuged for 10 min at 500 g. […] The resulting pellets were re-homogenized in hypotonic buffer. […] The samples were incubated for 2 h at 37° C., and the bound ligand was separated on Whatman GF/B glass fibre filters.

IRAP [1] = target: T2, IRAP (Homo sapiens, UniProt Q9UIQ6); assay: Degradation of peptides by IRAP expressed in HEK 293T cells, HPLC with mass spectrometric detection; type: biochemical
T2 construct: expressed in transfected cells; host or cells: HEK 293T cells (solubilised membrane protein)
Description: At each time point (0, 0.5, 1, 2, 4 & 6 hr), an aliquot containing 5 μg peptide was removed, and the reaction stopped by addition of 4 volumes methanol/1% trifluoroacetic acid (TPA). Samples were dried on a centrifugal vacuum evaporator prior to HPLC analysis with on-line mass spectrometric detector. […] Fragments were identified following mass spectral analysis, using Agilent ChemStation deconvolution software.

IRAP [2] = target: T2, IRAP; assay: IRAP enzymatic activity, hydrolysis of L-leucine-β-naphthylamide (fluorescence); type: biochemical
Excerpt: For example, Hek293 cells stably transfected with a eukaryotic expression vector expressing the AT4 receptor gene may be utilized. An example of this is the vector pcDNA-3 containing the cDNA encoding the full length AT4 receptor. Two assay systems are used, one for each spliced variant of the human AT4 receptor gene. The assay system involves the measurement of the rate of hydrolysis of L-leucyl β-naphthylamide by the AT4 receptor. The rate of hydrolysis by the transfected cells is followed by recording the increase in fluorescence (excitation at 340 nm, emission at 410 nm) using a purpose-designed fluorimeter. Test compounds are added to the assay system, and their effects on the hydrolysis of L-leucyl β-naphthylamide are a direct indicator of their modulation of AT4 receptor activity.
Crude membranes were prepared from HEK 293 cells stably transfected with pcDNA-3 containing the cDNA encoding the full length AT4 receptor/IRAP, using the same method as that described for bovine adrenal membranes. The membranes were solubilised in 50 mM Tris-HCl containing 1% Triton-X100 at 4° C. for 16 h. The IRAP enzymatic activity was determined by the hydrolysis of a synthetic substrate, L-leucine-β-naphthylamide, and monitored by the release of a fluorogenic product on a spectrophotometer set at excitation 340 nm and emission 410 nm. One hundred μM of the substrate was added to 10 μg of solubilised membranes, and the increase in fluorescence monitored for 10 min.
Samples were assayed 2-3 times in triplicate, except controls, which were performed 5 times in triplicate.

rats = assay: Passive avoidance, scopolamine-induced amnesia; type: in vivo, rat
Description: Passive avoidance trials were then used to test the effect of modulation of AT4 receptor/IRAP activity on aversive conditioning behaviour in amnesic animals. The passive avoidance task involves aversive conditioning behaviour to measure facilitation of memory retention and retrieval. The testing was carried out in an apparatus that consisted of a light and a dark compartment separated by a guillotine door. The floor of the dark compartment contained an electrified grid.
Rats were surgically implanted with chronic cannulae in the lateral ventricle. On conditioning day, the animals were habituated in the dark compartment for 5 min with the guillotine door closed. The animals were then placed in their home cages for 5 min before being placed in the light compartment with the guillotine door opened. The latency to enter the dark compartment with all four feet was documented. When the rats entered the dark compartment within 20 s of being placed in the light compartment, they were randomly divided into four treatment groups. The treatment groups were: • (1) saline followed by saline; • (2) saline followed by 1.0 nmole […] (SEQ ID NO:2); • (3) 70 nmole scopolamine followed by saline; and • (4) 70 nmole scopolamine followed by 1.0 nmole […] (SEQ ID NO:2).
All of these were administered into the cerebral ventricles 30 min and 5 min before the acquisition trial. […]

T2 sequence (Q9UIQ6 whole entry): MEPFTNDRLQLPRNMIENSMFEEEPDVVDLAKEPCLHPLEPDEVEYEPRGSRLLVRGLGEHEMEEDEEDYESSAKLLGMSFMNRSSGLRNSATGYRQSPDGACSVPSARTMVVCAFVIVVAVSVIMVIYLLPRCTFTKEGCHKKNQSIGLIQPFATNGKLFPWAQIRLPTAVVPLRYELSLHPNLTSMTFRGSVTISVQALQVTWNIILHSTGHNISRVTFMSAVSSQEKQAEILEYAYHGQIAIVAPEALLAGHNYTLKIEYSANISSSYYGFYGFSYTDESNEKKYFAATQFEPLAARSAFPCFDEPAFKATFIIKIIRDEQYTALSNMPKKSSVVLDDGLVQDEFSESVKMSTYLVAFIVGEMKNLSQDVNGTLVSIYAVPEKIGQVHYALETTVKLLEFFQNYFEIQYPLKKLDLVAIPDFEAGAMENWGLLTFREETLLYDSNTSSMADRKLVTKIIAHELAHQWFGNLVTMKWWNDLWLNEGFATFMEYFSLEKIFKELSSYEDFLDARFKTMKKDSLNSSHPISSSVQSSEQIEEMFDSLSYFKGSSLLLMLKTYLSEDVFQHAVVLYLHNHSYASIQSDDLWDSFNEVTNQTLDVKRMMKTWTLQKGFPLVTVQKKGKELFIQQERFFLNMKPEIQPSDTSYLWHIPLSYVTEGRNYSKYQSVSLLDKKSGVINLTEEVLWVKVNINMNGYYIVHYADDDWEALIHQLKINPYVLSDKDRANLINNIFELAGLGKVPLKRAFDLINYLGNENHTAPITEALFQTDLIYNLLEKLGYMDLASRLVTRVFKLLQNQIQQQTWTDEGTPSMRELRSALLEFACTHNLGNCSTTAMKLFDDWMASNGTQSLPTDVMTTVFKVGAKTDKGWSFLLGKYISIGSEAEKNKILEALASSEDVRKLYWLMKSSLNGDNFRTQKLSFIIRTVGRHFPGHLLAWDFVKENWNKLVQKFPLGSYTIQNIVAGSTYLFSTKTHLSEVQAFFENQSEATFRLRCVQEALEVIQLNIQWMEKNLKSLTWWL

LVVYPWTQRF was tested, and the Ki (AT4 receptor) was 1 to 5 nM, the “Substrate disappearance over 4 hr” value (IRAP [1]; 37° C., hIRAP transfected HEK 293T membranes, (=UT) equals untransfected control cells) was 14% (=UT) and the “Products Identified” value (IRAP [1]; incubation at 37° C. with solubilized membrane protein from hIRAP transfected HEK 293T cells) was “VVYPWTQRF”. For the same sequence, the Ki (IRAP [2]) was 845 nM, the “hydrolysis of L-leucine-β-naphthylamide by membranes containing IRAP” value (IRAP [2]; 10 mM peptide) was “totally abolished” and the “type of inhibition of IRAP” value (IRAP [2]; Lineweaver-Burk analysis) was “competitive inhibitors”. The “latency to re-enter the dark compartment” value (rats; 1.0 nmole icv after 70 nmole scopolamine) was “not significantly different from controls” and the “latency to re-enter the dark compartment” value (rats; 1.0 nmole icv alone (after saline)) was “comparable to the scopolamine-treated group”.
